Results as given in US20230003721A1, “MITOTHERAPEUTICS FOR THE TREATMENT OF BRAIN DISORDERS” (The University of Florida Research Foundation, Inc., priority 2019, published 2023).
Structures can show the parent of a compound that is named as a salt. Where two headings read alike, the source gives them in different places.

How the values were obtained:
[1] = test system: primary forebrain neurons; conditions: 48 h; for death among neurons compared to control: Aβ(1-42) 10 μM; for live:dead cell ratio in the presence of toxic concentrations of glutamate: 25 μM glutamate
primary neurons [2] = test: TMRM fluorescence assay of inner mitochondrial membrane potential (ΔΨm); conditions: for Emax / EC50: Mus musculus, Primary neuron; for Emax: read-out: TMRM (Effect-size); for EC50: read-out: TMRM-EC50; for TMRM Primary: primary screen, 12.5 μM; for TMRM Primary / TMRM Rescreen: 24 h
primary neurons [3] = test: CellTiter-Glo luminescence-based ATP assay; type: cell-based, mouse; conditions: for ATP: ATP orthogonal screen, 24 h; for EC50 / Emax: Mus musculus, Primary neuron, dose response; for EC50: 15 concentrations from 6 nM to 100 uM; for Emax: maximal percent increase relative to in-plate DMSO controls, read-out: ATP (Effect-size)
Outline: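 Primary neurons treated from DIV13 for 24 h with compound or DMSO. After part of the medium was removed, CellTiter-Glo reagent was added; plates were shaken 10 min at 200 rpm, kept 2 min in the dark at room temperature, and luminescence read as total ATP.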

Drosophila model for AD = test: Drosophila model for AD: neuronal mitochondrial morphology; type: in vivo; conditions: cell bodies of neurons; 100 micromolar, 15 days-of-age
Excerpt: To assay representative compounds in this example, we employed a Drosophila model for AD (X. Wang et al., Mol. Neurobiol. […] Flies expressing this toxic protein show: […] Drugs that show efficacy therefore: enlarge neuronal mitochondria (increased volume, increased surface area, increased length), reduce sphericity, and reduce the number of mitochondria compared to untreated Alzheimer's flies. The AD model flies were collected immediately after eclosion from the pupal case and transferred to food that was laced with drug at 100 micromolar concentration. The flies were aged to 15 days-of-age: this is when the mitochondrial pathology is very robust. We compared the morphology of mitochondria collected from these flies treated with drug and compared them to the mitochondria of flies that remained untreated.

[4] = test system: primary forebrain neurons; test: cells; conditions: for EC50: Mus musculus, Neuron; for EC50 / Dendritic Mt CA / Neurite Area: 24 h; for Dendritic Mt CA / Neurite Area: rescreen, 12.5 μM, vs DMSO wells
Procedure: Primary forebrain cell culture and maintenance. Forebrains of P0 Mt or Mt/Ai14 pups without olfactory bulbs and meninges were collected and placed in ice cold Ca^2+ and Mg^2+ free HBSS supplemented with 2 μg/ml gentamicin, 25 mM D-glucose, 1 mM pyruvate and 20 mM HEPES. Brain tissue was digested with 0.6 mg/ml papain at 37° C. for 20 min. Forebrains were washed with plating media [Neurobasal (Gibco), 5% FBS, 4 mM GlutaMAX (Gibco), 2 μg/ml gentamicin]. The tissue was gently triturated, allowed to settle and the supernatant was filtered through a 40 μm mesh-sized cell strainer. Cells were centrifuged at 420×g for 4 min and resuspended in plating media. 15,000 cells per well were plated with 2×10^8 viral particles/ml onto black Greiner μClear (Cat #781946) or Ultra-Low Base Aurora with evaporation barrier (Cat #ABE201201B) 384-well plates (80 μl/well) pre-coated with poly-D-lysine for the primary screen and rescreen, respectively. Plating and media changes were performed using an automated Biomek FX^P liquid handling workstation. Four hr after plating, 75% of the plating media was replaced by feeding media [Neurobasal-A (Gibco), 4 mM GlutaMAX (Gibco), 2 μg/ml gentamicin, 2% B27 (Gibco)]. At DIV4, 50% of the media was exchanged with fresh feeding media supplemented with 16 μM 5-Fluoro-2′-deoxyuridine (FUdR) to prevent glial cell over-growth. At DIV8 and DIV12, additional 50% media changes were made without FUdR. Cells were maintained at 37° C. and 5% CO2; plates were topped with Breathe-Easy adhesive membranes (Greiner plates) to minimize evaporation.
Compounds and compound transfer.
Imaging. Images were captured using a GE Incell 6000 system (60× objective, 0.95 NA, 16-bit images) equipped with environmental control (37° C., 5% CO2). Mt-GFP (green channel) was imaged by confocal imaging (3 slices, Δz=0.7 μm, aperture=1.0 AU, λexc=488 nm, λem=515-535 nm). Cyto-tdTomato (red channel) and MitoTracker Orange (red channel) were imaged using confocal mode (3 slices, Δz=0.7 μm, aperture=1.0 AU, λexc=561 nm, λem=569-641 nm, MitoTracker Orange) or with widefield mode (Cyto-tdTomato). TMRM imaged for the co-localization experiments with Mt-GFP was imaged using the confocal mode (3 slices, […] aperture=1.0, λexc=488, λem=569-641 nm). For the live-dead assay, primary neurons were imaged with a 20× (widefield mode, NA 0.45) objective using λexc=561 nm and λem=569-641 nm for the propidium iodide stained dead cells (red channel), and λexc=488 nm and λem=515-535 nm for the fluorescein diacetate stained live cells (green channel). 10 fields were collected from each well, and 4 wells were imaged/condition in the live-dead assay. For all other experiments, 4 fields/well were imaged unless otherwise stated.
Automated data analysis pipeline. Most experiments utilized only Mt-GFP; some utilized both Mt-GFP and Cyto-tdTomato. The Z-projected images were preprocessed using a custom Fiji macro. For preprocessing of Mt-GFP images: background was subtracted (rolling ball, radius=3), images were median filtered (radius=1) and somatic mitochondria were removed. For removal of the somatic mitochondria, they were first segmented and then a somatic mitochondrial mask overlaid on the image.

[5] = test system: isolated forebrain mitochondria; test: ATP production of isolated mitochondria (luciferase-based kinetic assay); type: biochemical, mouse; conditions: for ATP production kinetics, amplitude of single exponential fit: 12 μM, starting 20 min after addition, DMSO 22498±358; for ATP production of isolated mitochondria (direct effect): 12.5 μM, within the 45-min measurement period, vs DMSO
Procedure: Isolation of mitochondria. For the ATP synthesis experiments of FIG. 6, forebrains from P0 pups were dissected as described above. 2×10^7 cells were harvested for high-purity mitochondrial isolation using the Qiagen QProteome kit. The mitochondrial pellet was resuspended in 500 μl mitochondria storage buffer (provided by kit) and kept on ice until further use.
ATP production of isolated forebrain mitochondria of P0 pups was measured by ATP Determination Kit (Molecular Probes). […] The reactions were initiated by the addition of 1 mM ADP (deprived of ATP contamination by adding 3 U/ml hexokinase to 10 mM of ADP in 50 mM Tris-HCl, 20 mM MgCl2 and 22 mM glucose, incubating the solution at 37° C. for 1 hr and heat inactivating the hexokinase at 100° C. for 3 min). Luminescence was recorded every 15-30 sec for 1 hr at 580±40 nm.

primary neurons [6] = conditions: for protection from peroxide (PO) induced mitochondrial fragmentation: 75 μM peroxide
[7] = peroxide 75 μM, glutamate 25 μM
[8] = read-out: Health (Ax Mt Circularity) EC50
[9] = read-out: Sprouting (Neurite Area) EC50
[10] = read-out: Elongation (Dend Mt length) EC50
[11] = read-out: Mt Content (Dend Mt CA) EC50

Molecule | Emax (primary neurons [2]) [%] | EC50 (primary neurons [2]) [nM] | TMRM Primary (primary neurons [2]) [Z-scores] | TMRM Rescreen (primary neurons [2]) [Z-scores] | ATP (primary neurons [3]) [Z-scores] | EC50 (primary neurons [3]) [nM] | Emax (primary neurons [3]) [%] | EC50 [4, 8] [nM] | EC50 [4, 9] [nM] | Dendritic Mt CA [4] [robust Z-scores] | Neurite Area [4] [robust Z-scores] | ATP production kinetics, amplitude of single exponential fit [5] | ATP production of isolated mitochondria (direct effect) [5] | live:dead cell ratio in the presence of toxic concentrations of glutamate [1] | EC50 [4, 11] [nM] | protection from peroxide (PO) induced mitochondrial fragmentation (primary neurons [6]; 12.5 μM compound, 48 h) | other results
N[C@@H](CCC(=O)O)C(=O)[O-].[Na+] [glutamate, monosodium glutamate] |  |  |  |  |  |  |  |  |  |  |  |  |  |  |  |  | death among neurons compared to control [1, 7]: 42%; live cell ratio (live cells/live+dead cells) ([1]; peroxide 75 μM, glutamate 25 μM, control 0.57): 0.26
O=c1[nH]c2ccccc2n1C1CCN(CCCC(c2ccc(F)cc2)c2ccc(F)cc2)CC1 [pimozide] | 25.1 | 130 | 2.65 | 3.74 | 6.60 | 90 | 20.4 |  |  |  |  |  |  |  |  |  | Surface area of mitochondria, p (treated vs untreated) (Drosophila model for AD): p = 0.017
Aβ(1-42): toxic amyloid-β peptide fragment, oligomeric, HFIP-treated peptide (BACHEM) |  |  |  |  |  |  |  |  |  |  |  |  |  |  |  |  | death among neurons compared to control [1, 7]: no detectable death
O=C(/C=C/c1ccccc1)c1ccc(O)cc1O [2′,4′-DIHYDROXYCHALCONE] |  |  |  |  |  |  |  | 6700 | > 25000 | 3.39 | 0.42 | 9853±132 | decreased | offered protection |  |  | 
COc1ccccc1OCCNCC(O)COc1cccc2[nH]c3ccccc3c12 (stereo not shown) [carvedilol] | 20.2 | 350 | 4.11 | 5.71 | 5.32 | 230 | 15.9 |  |  |  |  |  |  |  |  |  | Surface area of mitochondria, p (treated vs untreated) (Drosophila model for AD): p = 0.078
O=C(/C=C/c1ccccc1)c1ccc(O)cc1 [4′-HYDROXYCHALCONE] |  |  |  |  |  |  |  | 5800 | 900 | 5.11 | 2.21 | 6121±99 | decreased | offered protection | 4800 | fully protected | EC50 [4, 10]: 2300 nM
N#CC(C#N)=NNc1ccc(OC(F)(F)F)cc1 [FCCP, carbonyl cyanide-p-trifluoromethoxyphenylhydrazone] |  |  |  |  |  |  |  |  |  |  |  | 17958±216 |  |  |  |  | average area of axonal mitochondria [4]: 0.39 μm^2; average area of dendritic mitochondria [4]: 1.06 μm^2; average well axonal mitochondrial CA [4]: 629±83 μm^2; average well dendritic mitochondrial CA [4]: 123±44 μm^2; increase in axonal mitochondrial CA [4]: 225 μm^2; median axonal mitochondrial circularity [4]: 0.94±0.004; median dendritic mitochondrial length [4]: 2.77±0.07 μm; number of axonal mitochondria [4]: 51767; number of dendritic mitochondria [4]: 3713; sum of dendritic and axonal mitochondrial CA [4]: 754 μm^2; reduction in the average dendritic mitochondrial CA per well ([4]; FCCP treatment vs DMSO): ~90%
Aβ(1-40): less-toxic oligomeric amyloid-β peptide used as control |  |  |  |  |  |  |  |  |  |  |  |  |  |  |  |  | mitochondrial fragmentation caused by oligomeric peptide (primary neurons [6]): failed to cause mitochondrial fragmentation
CCN(CCCc1ccccc1)CCCc1ccccc1 [ALVERINE CITRATE] |  |  | 4.24 | 4.15 | 4.56 |  |  | 300 | > 25000 | 5.09 | −1.50 | 28383±278 | significantly increased | offered protection | 200 | fully protected | EC50 [4, 10]: 2900 nM; ATP production in neurons (primary neurons [3]; after 24 hr of treatment): increased; protection from glutamate (GLUT) induced mitochondrial fragmentation (primary neurons [6]; 25 μM glutamate, 12.5 μM compound, 48 h): fully protected
COc1ccccc1N1CCN(CC(O)COc2cccc3ccccc23)CC1 (stereo not shown) [NAFTOPIDIL] | 18.8 | 2240 | 3.64 | 9.07 | 3.62 | 230 | 15 | 200 | 500 | 4.86 | 2.41 | 49917±838 | significantly increased |  | 100 | fully protected | 
